Where two headings read alike, the source gives them in different places.
Target: T1, chimeric human H3 receptor (Homo sapiens, UniProt Q9Y5N1, E19D)
T1 construct: made in house; host or cells: Sf9 insect cells (baculovirus infection); P2 membrane preparation
Experiment: Chimeric human H3 receptor GTP binding assay (agonist-stimulated GTP-gamma35S binding, Example 7)
Assay type: biochemical
From the text: This Example illustrates a representative assay for evaluating agonist-stimulated GTP-gamma^35S binding (“GTP binding”) activity. […] This agonist-stimulated GTP binding activity can also be used to detect partial agonism mediated by antagonist compounds. A compound analyzed in this assay is referred to herein as a “test compound.”
Four independent baculoviral stocks (one directing the expression of the chimeric human H3 receptor and three directing the expression of each of the three subunits of a heterotrimeric G-protein) are used to infect a culture of Sf9 cells as described above. P2 membranes are prepared as described above, and agonist-stimulated GTP binding on the P2 membranes is assessed using histamine (Sigma Chemical Co., St. Louis, Mo.) as agonist in order to ascertain that the receptor/G-protein-alpha-beta-gamma combination(s) yield a functional response as measured by GTP binding. P2 membranes are resuspended by Dounce homogenization (tight pestle) in GTP binding assay buffer (50 mM Tris pH 7.4, 120 mM NaCl, 5 mM MgCl2, 2 mM EGTA, 1 mg/ml BSA, 0.2 mg/ml bacitracin, 0.02 mg/ml aprotinin, 0.01 mg/ml saponin, 10 μM GDP) and added to assay tubes at a concentration of 35 μg protein/reaction tube. […] In competition experiments, non-radiolabeled test compounds are added to separate reactions at concentrations ranging from 10^−10 M to 10^−6 M along with 1 μM histamine to yield a final volume of 0.20 ml.
Neutral antagonists are antagonists that are substantially free of inherent agonist activity, and include those test compounds that reduce the histamine-stimulated GTP binding activity towards, but not below, baseline levels. In contrast, in the absence of added histamine, inverse agonists reduce the GTP binding activity of the receptor-containing membranes below baseline.
After a 60-min incubation at room temperature, reactions are terminated by vacuum filtration over WHATMAN GF/C filters (pre-soaked in wash buffer, 0.1% BSA) followed by washing with ice-cold wash buffer (50 mM Tris pH 7.4, 120 mM NaCl). The amount of receptor-bound (and thereby membrane-bound) GTP-gamma^35S is determined by measuring the filter-bound radioactivity, preferably by liquid scintillation spectrometry of the washed filters. […] Data is expressed as percent above basal (baseline). The results of GTP binding experiments are analyzed using SIGMAPLOT software (SPSS Inc., Chicago, Ill.).
IC50 values are calculated by non-linear regression analysis of dose-response curves using Kaleidograph (Synergy Software, Reading, Pa.).

[1] = Table II, "*" in Ki, assay of Example 7, read-out: Ki
[2] = Table II, assay of Example 7, "*" in Ki, read-out: Ki
[3] = Table II "Ki", symbol "*": Ki in the assay of Example 7, read-out: Ki
[4] = assay of Example 7, symbol * in column headed Ki of Table II, read-out: Ki
[5] = assay of Example 7, "*" in Ki of Table II, read-out: Ki
[6] = "*" in Ki of Table II, assay of Example 7, read-out: Ki

T1 sequence (Q9Y5N1 with tags, fused parts or gaps E19D): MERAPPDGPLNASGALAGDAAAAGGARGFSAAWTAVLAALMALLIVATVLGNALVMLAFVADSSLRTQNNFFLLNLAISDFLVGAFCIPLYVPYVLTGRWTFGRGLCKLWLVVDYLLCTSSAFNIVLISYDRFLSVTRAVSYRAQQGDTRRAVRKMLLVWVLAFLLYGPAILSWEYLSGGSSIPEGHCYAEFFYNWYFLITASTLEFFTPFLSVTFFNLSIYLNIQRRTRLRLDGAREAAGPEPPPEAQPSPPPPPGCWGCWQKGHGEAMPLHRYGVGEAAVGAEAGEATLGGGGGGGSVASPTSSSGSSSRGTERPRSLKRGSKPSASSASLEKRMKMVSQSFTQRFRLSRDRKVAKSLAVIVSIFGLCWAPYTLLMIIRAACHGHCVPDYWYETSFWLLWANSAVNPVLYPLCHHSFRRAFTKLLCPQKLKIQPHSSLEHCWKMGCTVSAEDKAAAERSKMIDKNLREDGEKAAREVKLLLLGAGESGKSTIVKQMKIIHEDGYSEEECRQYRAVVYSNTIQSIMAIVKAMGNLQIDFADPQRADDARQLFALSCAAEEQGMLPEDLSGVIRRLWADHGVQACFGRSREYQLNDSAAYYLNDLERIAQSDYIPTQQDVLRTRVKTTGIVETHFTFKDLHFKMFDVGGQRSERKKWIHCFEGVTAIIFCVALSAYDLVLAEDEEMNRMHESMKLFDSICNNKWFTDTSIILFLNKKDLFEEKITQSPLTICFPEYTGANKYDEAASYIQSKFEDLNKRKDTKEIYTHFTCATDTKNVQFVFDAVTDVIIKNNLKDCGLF

## O=C(CN1CCN(c2ccc(-c3cc(Cl)cc(Cl)c3)cc2)CC1)N1CCN(C2CCC2)CC1 [Compound 739, 1-cyclobutyl-4-{[4-(3′,5′-dichlorobiphenyl-4-yl)piperazin-1-yl]acetyl}piperazine]
[1]
  Ki: < 1000 nM

## O=C(CN1CCN(c2ncc(F)cn2)CC1)N1CCN(C2CCCC2)CC1 [Compound 977, 2-{4-[2-(4-cyclopentylpiperazin-1-yl)-2-oxoethyl]piperazin-1-yl}-5-fluoropyrimidine]
[2]
  Ki: < 1000 nM

## CC(C)N1CCN(C(=O)CN2CCN(c3ccc(C(F)(F)F)cn3)CC2)CC1 [Compound 846, 1-isopropyl-4-({4-[5-(trifluoromethyl)pyridin-2-yl]piperazin-1-yl}acetyl)piperazine]
[3]
  Ki: < 1000 nM

## CC(C)N1CCN(C(=O)CN2CCN(c3ccccc3)CC2)CC1 [Compound 847, 1-isopropyl-4-[(4-phenylpiperazin-1-yl)acetyl]piperazine]
  Ki: < 1000 nM

## O=C(CN1CCN(c2cnc(Br)cn2)CC1)N1CCN(C2CCC2)CC1 [Compound 983, 2-bromo-5-{4-[2-(4-cyclobutylpiperazin-1-yl)-2-oxoethyl]piperazin-1-yl}pyrazine]
[2]
  Ki: < 1000 nM

## O=C(CN1CCN(c2cccc(C(=O)N3CCCCC3)c2)CC1)N1CCN(C2CCC2)CC1 [Compound 585, 1-cyclobutyl-4-({4-[3-(piperidin-1-ylcarbonyl)phenyl]piperazin-1-yl}acetyl)piperazine]
[1]
  Ki: < 1000 nM

## O=C(CN1CCN(c2ccc(-c3cccc(Cl)c3)cc2)CC1)N1CCN(C2CCC2)CC1 [Compound 300, 1-(3′-chlorobiphenyl-4-yl)-4-[2-(4-cyclobutylpiperazin-1-yl)-2-oxoethyl]piperazine]
[4]
  Ki: < 1000 nM

## O=C(NC1CCN(CC(=O)N2CCN(C3CCC3)CC2)CC1)C1CCCCCC1 [Compound 1228, N-{1-[2-(4-cyclobutylpiperazin-1-yl)-2-oxoethyl]piperidin-4-yl} cycloheptanecarboxamide]
[5]
  Ki: < 1000 nM

## COc1ccc(CC(=O)N2CCN(CC(=O)N3CCN(C4CCC4)CC3)CC2)c(OC)c1 [Compound 507, 1-cyclobutyl-4-({4-[(2,4-dimethoxyphenyl)acetyl]piperazin-1-yl}acetyl)piperazine]
[6]
  Ki: < 1000 nM

## CCCC(C)NC(=O)c1cccc(N2CCN(CC(=O)N3CCN(C4CCC4)CC3)CC2)c1 (centres unmarked) [Compound 1082, 3-{4-[2-(4-cyclobutylpiperazin-1-yl)-2-oxoethyl]piperazin-1-yl}-N-(1-methylbutyl)benzamide]
[2]
  Ki: < 1000 nM

## COc1cccc(CN2C(=O)c3cccnc3C23CCN(CC(=O)N2CCN(C4CCC4)CC2)CC3)c1 [Compound 430, 1-[2-(4-cyclobutylpiperazin-1-yl)-2-oxoethyl]-6′-(3-methoxybenzyl) spiro[piperidine-4,7-pyrrolo[3,4-b]pyridin]-5′(6′H)-one]
[4]
  Ki: < 1000 nM

## CCC(C)N1CCN(C(=O)CN2CCN(c3ccccc3)CC2)CC1 (centres unmarked) [Compound 857, 1-sec-butyl-4-[(4-phenylpiperazin-1-yl)acetyl]piperazine]
[3]
  Ki: < 1000 nM

## COc1ccc(-c2cnc(N3CCN(CC(=O)N4CCN(C5CCC5)CC4)CC3)cn2)cc1OC [Compound 945, 2-{4-[2-(4-cyclobutylpiperazin-1-yl)-2-oxoethyl]piperazin-1-yl}-5-(3,4-dimethoxyphenyl) pyrazine]
[2]
  Ki: < 1000 nM

## CCN1CCN(C(=O)CN2CCN(c3ccc(Cl)cc3)CC2)CC1 [Compound 359, 1-(4-chlorophenyl)-4-[2-(4-ethylpiperazin-1-yl)-2-oxoethyl]piperazine]
  Ki: < 1000 nM

## O=C1CCc2cc(N3CCN(CC(=O)N4CCN(C5CCC5)CC4)CC3)ccc21 [Compound 1157, 5-{4-[2-(4-cyclobutylpiperazin-1-yl)-2-oxoethyl]piperazin-1-yl}indan-1-one]
[5]
  Ki: < 1000 nM

## O=C(CN1CCN(c2ccc(C(=O)N3CCC(F)(F)CC3)cc2)CC1)N1CCN(C2CCC2)CC1 [Compound 647, 1-cyclobutyl-4-[(4-{4-[(4,4-difluoropiperidin-1-yl)carbonyl]phenyl}piperazin-1-yl)acetyl]piperazine]
[1]
  Ki: < 1000 nM

## O=C(NC1CCCC1)c1ccc(N2CCN(CC(=O)N3CCN(C4CCC4)CC3)CC2)nc1 [Compound 1183, 6-{4-[2-(4-cyclobutylpiperazin-1-yl)-2-oxoethyl]piperazin-1-yl}-N-cyclopentylnicotinamide]
[5]
  Ki: < 1000 nM

## O=C(CN1CCN(c2cccc(C(=O)N3CC[C@@H]4CCCC[C@@H]4C3)c2)CC1)N1CCN(C2CCC2)CC1 [Compound 254, (4aS,8aS)-2-(3-{4-[2-(4-cyclobutylpiperazin-1-yl)-2-oxoethyl]piperazin-1-yl}benzoyl) decahydroisoquinoline]
[4]
  Ki: < 1000 nM

## O=C(CN1CCN(c2ccc3c(c2)OCO3)CC1)N1CCN(C2CCCC2)CC1 [Compound 257, 1-(1,3-benzodioxol-5-yl)-4-[2-(4-cyclopentylpiperazin-1-yl)-2-oxoethyl]piperazine]
  Ki: < 1000 nM

## O=C(CN1CCC2(CC1)C(=O)N(Cc1ccccc1)c1cccnc12)N1CCN(C2CCC2)CC1 [Compound 492, 1′-benzyl-1-[2-(4-cyclobutylpiperazin-1-yl)-2-oxoethyl]spiro[piperidine-4,3′-pyrrolo[3,2-b]pyridin]-2′(1′H)-one]
[6]
  Ki: < 1000 nM

## Cc1cccc(C(=O)NC2CCN(CC(=O)N3CCN(C4CCC4)CC3)C2)c1 (centres unmarked) [Compound 1230, N-{1-[2-(4-cyclobutylpiperazin-1-yl)-2-oxoethyl]pyrrolidin-3-yl}-3-methylbenzamide]
[5]
  Ki: < 1000 nM

## CC1CC(C)CN(C(=O)c2ccc(N3CCN(CC(=O)N4CCN(C5CCC5)CC4)CC3)nc2)C1 (centres unmarked) [Compound 653, 1-cyclobutyl-4-[(4-{5-[(3,5-dimethylpiperidin-1-yl)carbonyl]pyridin-2-yl}piperazin-1-yl)acetyl]piperazine]
[1]
  Ki: < 1000 nM

## Cc1cc(C)c(-c2cnc(N3CCN(CC(=O)N4CCN(C5CCC5)CC4)CC3)cn2)c(C)c1 [Compound 974, 2-{4-[2-(4-cyclobutylpiperazin-1-yl)-2-oxoethyl]piperazin-1-yl}-5-mesitylpyrazine]
[2]
  Ki: < 1000 nM

## O=C(CN1CCN(c2ccc(-c3ccc(F)cc3)cc2)CC1)N1CCN(C2CCC2)CC1 [Compound 774, 1-cyclobutyl-4-{[4-(4′-fluorobiphenyl-4-yl)piperazin-1-yl]acetyl}piperazine]
[3]
  Ki: < 1000 nM

## CCCc1ccc(C(=O)NC2CCN(CC(=O)N3CCN(C4CCC4)CC3)C2)cc1 (centres unmarked) [Compound 1234, N-{1-[2-(4-cyclobutylpiperazin-1-yl)-2-oxoethyl]pyrrolidin-3-yl}-4-propylbenzamide]
[5]
  Ki: < 1000 nM

## CC(=O)c1ccc(N2CCN(CC(=O)N3CCN(C4CCC4)CC3)CC2)c(C(F)(F)F)c1 [Compound 462, 1-[4-{4-[2-(4-cyclobutylpiperazin-1-yl)-2-oxoethyl]piperazin-1-yl}-3-(trifluoromethyl)phenyl] ethanone]
[6]
  Ki: < 1000 nM

## CCC(C)N1CCN(C(=O)CN2CCN(c3cccc(C)c3)C(C)C2)CC1 (centres unmarked) [Compound 1114, 4-[2-(4-sec-butylpiperazin-1-yl)-2-oxoethyl]-2-methyl-1-(3-methylphenyl)piperazine]
[2]
  Ki: < 1000 nM

## COc1ccc(-c2cnc(N3CCN(CC(=O)N4CCN(C5CCC5)CC4)CC3)cn2)c(C)c1 [Compound 950, 2-{4-[2-(4-cyclobutylpiperazin-1-yl)-2-oxoethyl]piperazin-1-yl}-5-(4-methoxy-2-methylphenyl)pyrazine]
[2]
  Ki: < 1000 nM

## Cc1ccc(N2CCN(CC(=O)N3CCN(C4CCC4)CC3)CC2)cc1 [Compound 785, 1-cyclobutyl-4-{[4-(4-methylphenyl)piperazin-1-yl]acetyl}piperazine]
[3]
  Ki: < 1000 nM

## COc1ccc(N2CCN(CC(=O)N3CCN(C4CCCCC4)CC3)CC2)cc1 [Compound 823, 1-cyclohexyl-4-{[4-(4-methoxyphenyl)piperazin-1-yl]acetyl}piperazine]
[3]
  Ki: < 1000 nM

## CCSc1ccc(C(=O)NC2CCN(CC(=O)N3CCN(C4CCC4)CC3)CC2)cc1 [Compound 1223, N-{1-[2-(4-cyclobutylpiperazin-1-yl)-2-oxoethyl]piperidin-4-yl}-4-(ethylthio)benzamide]
[5]
  Ki: < 1000 nM

## Cc1cc(N2CCN(CC(=O)N3CCN(C4CCCCC4)CC3)CC2)ccc1Cl [Compound 350, 1-(4-chloro-3-methylphenyl)-4-[2-(4-cyclohexylpiperazin-1-yl)-2-oxoethyl]piperazine]
[4]
  Ki: < 1000 nM

From patent publication US7851474B2, “Dipiperazinyl ketones and related analogues” (Neurogen Corporation, priority 2005, dated 2010)
